Source: patent US9005677B2, “Autophagy enhancer for treatment of neurodegenerative diseases” (Macau University of Science and Technology, priority 2013, dated 2015)
Entries after “also recorded” stand apart in the source; their conditions may differ.

Columns and labels:
[1] = test system: GFP-LC3 puncta formation in PC12 cells; assay: Quantification of autophagy GFP-LC3 puncta; type: cell-based, rat; details: fluorescent microscopy
Method: Quantification of autophagy GFP-LC3 Puncta. GFP-LC3 puncta formation was quantified as described previously. In brief, cells grown on coverslips in a 6-well plate were fixed in 4% paraformaldehyde for 20 minutes at room temperature and then rinsed with PBS. Slides were mounted with FluorSave™ mounting media (Calbiochem, San Diego, Calif.) and examined by fluorescence microscopy. The number of GFP-positive cells with GFP-LC3 puncta formation was examined under the Nikon ECLIPSE 80i microscope. Representative images were captured with CCD digital camera Spot RT3™ (Diagnostic Instruments, Inc., Melville, N.Y.). To quantify autophagy, the percentage of cells with punctate GFP-LC3 fluorescence was calculated by counting the number of the cells with punctate GFP-LC3 fluorescence in GFP-positive cells. A minimum of 150 cells from 3 randomly selected fields was scored.

PC-12 cells [2] = assay: MTT cytotoxicity assay; type: cell-based, rat; details: 0.039-100 μmol/L, 48 hours
Method: (§1) Cell culture and cytotoxicity assay: The test compound of Onjisaponin B was dissolved in DMSO at a final concentration of 100 mmol/L and stored at −20° C. Cytotoxicity was assessed using the 3-(4,5-dimethylthiazol-2-yl) -2,5-diphenyltetrazolium bromide assay as described previously. PC-12, 4000 cells were seeded on 96-well plates per well. After overnight pre-incubation, the cells were exposed to different concentrations of Onjisaponin B (0.039-100 μmol/L) for 2 days. Subsequently, 10 μL of MTT reagents was added to each well and incubated at 37° C. for 4 hours followed by the addition of 100 μL solubilization buffer (10% SDS in 0.01 mol/L HCl) and overnight incubation. Absorbance at 585 nm was determined from each well the next day. For cell viability assay measured by crystal violet staining, PC-12 cells were incubated in 35 mm disc followed by the addition of Onjisaponin B at the indicated concentrations for 24 hours. The cells were then incubated with crystal violet for 10 minutes followed by a ddH2O wash. […] Cell viability was quantified by dissolving the stained cells in 10% acetic acid (200 μL/well). The colorimetric reading of the solute mixture was then determined by spectrophotometer at OD 560 nm The percentage of cell viability was calculated using the following formula: Cell viability (%)=Cells number treated/Cells number DMSO control×100. […]

[3] = test system: EGFP-HDQ74 inclusions in PC12 cells; assay: Mutant huntingtin aggregates in PC12, fluorescence microscopy; type: cell-based, rat; details: immunocytochemistry
Method: Quantification of mutant huntingtin aggregates in PC12, Atg7 wild type and deficient MEFs. In brief, both EGFP-HDQ74 transfected PC12, Atg7 wild-type and deficient mouse embryonic fibroblasts (MEFs) grown on coverslips in a 6-well plate were treated with indicated concentrations of Onjisaponin B. The cells were then fixed in 4% paraformaldehyde for 20 minutes at room temperature and then rinsed with PBS. Slides were mounted with FluorSave™ mounting media (Calbiochem, San Diego, Calif.) and examined by fluorescence microscopy. The number of cells with GFP-aggregates formation was examined under the Nikon ECLIPSE 80i microscope. Representative images were captured with CCD digital camera Spot RT3™ (Diagnostic Instruments, Inc., Melville, N.Y.). To quantify the clearance of mutant huntingtin, the percentage of cells with GFP-aggregates was calculated by counting the number of the cells with punctate GFP-LC3 fluorescence in GFP-positive cells. A minimum of 150 cells from 3 randomly selected fields was scored.

[4] = biological target: T1, α-synuclein oligomerization in HeLa cells transfected with GNS and SGC (Homo sapiens, UniProt P37840); assay: Bimolecular fluorescence complementation (BiFC) assay; type: cell-based; details: 24 hours at 30° C.
T1 construct: expressed in transfected cells; host or cells: HeLa cells
Method: Bimolecular fluorescence complementation (BiFC) assay. In brief, HeLa cells transfected with both GFP-N terminal-α-synuclein (GNS) and α-synuclein-GFP-C terminal (SGC) plasmids were incubated at 37° C. for 4 hours. Then, the transfected cells were incubated with different concentrations of Radix Polygalae ethanol extract or Onjisaponin B for a further 24 hours at 30° C.. Fluorescent signals upon complete GFP fluorophore reconstitution in cells were then detected by flow analysis.
Results: By using the bimolecular fluorescence complementation (BiFC) assay, the oligomerization of α-synuclein in living cells can be directly quantified. In brief, α-synuclein proteins fused with two different non-fluorescent GFP terminal fragments, (i) GFP-N terminal-α-synuclein (GNS) or (ii) α-synuclein-GFP-C terminal (SGC) respectively were used. Upon oligomerization of α-synuclein, the two non-fluorescent fractions of GFP will therefore reconstitute the complete GFP fluorophore and transmit GFP fluorescent signal within cells. This signal in turn can be quantified by flow cytometry analysis.

PC-12 cells [5] = assay: Cell viability by crystal violet staining; type: cell-based, rat; details: 24 hours
Method: as §1

[6] = test system: mutant huntingtin EGFP-HDQ74 in PC 12 cells; assay: Removal of mutant huntingtin, immunoblotting against EGFP; type: cell-based, rat; details: 24 hours treatment
Method: Removal of mutant huntingtin and mutant α-synuclein. PC 12 cells were transfected transiently with EGFP-HDQ74 plasmids for 24 hours using Lipofectamine Plus LTX reagent (Invitrogen) according to the manufacturer's protocol. The transfected cells were then treated with Onjisaponin B for 24 hours. The removal of mutant huntingtin, EGFP-HDQ74, was then quantitated by immunoblotting with antibody against EGFP. To measure the clearance of α-synuclein in cellular model, the overexpression of mutant A53T α-synuclein was first induced by the addition of doxycycline (1 μg/ml) (Sigma) for 24 hours, by using the doxycycline inducible PC 12 cell line transfected with A53T α-synuclein plasmid. The expression of mutant A53T α-synuclein was then switched off by removing doxycycline from medium. Cells were then incubated with Onjisaponin B for a further 24 hours. The clearance of mutant α-synuclein was then measured by immunoblotting with antibody against myc tag.

[7] = test system: LC3-II conversion in PC12 cells; assay: Western blot of autophagic marker protein LC3 conversion; type: cell-based
Method: Detection of autophagic marker protein LC3 conversion. After drug treatments with or without autophagy inhibitor ([…] E64D and pepstain A), cells were harvested and lysed in RIPA buffer (Cell Signaling Technologies Inc., Beverly, Mass.). The cell lysates were then resolved by SDS-PAGE. After electrophoresis, the proteins from SDS-PAGE were transferred to nitrocellulose membrane which was then blocked with 5% non-fat dried milk for 60 minutes. The membrane was then incubated with LC3 primary antibodies (1:1000) in TBST overnight at 4° C. After that, the membrane was further incubated with HRP-conjugated secondary antibodies for 60 minutes. Finally, protein bands were visualized by using the ECL Western Blotting Detection Reagents (Invitrogen, Paisley, Scotland, UK).

Question: Which results are given for `COc1ccc(/C=C/C(=O)O[C@@H]2[C@H](O[C@@H]3O[C@@H](C)[C@H](O)[C@@H](O)[C@H]3O)[C@@H](O[C@@H]3O[C@@H](C)[C@H](O[C@@H]4OC[C@@H](O[C@@H]5O[C@H](CO)[C@H](O)[C@H](O)[C@H]5O)[C@H](O)[C@H]4O)[C@@H](O)[C@H]3O)[C@H](OC(=O)[C@]34CCC(C)(C)C[C@H]3C3=CC[C@@H]5[C@@]6(C)C[C@H](O)[C@H](O[C@@H]7O[C@H](CO)[C@@H](O)[C@H](O)[C@H]7O)[C@@](C)(C(=O)O)[C@@H]6CC[C@@]5(C)[C@]3(CO)CC4)O[C@@H]2C)cc1` [Onjisaponin B]?
Answer: GFP-LC3 puncta formation [1]: increased the formation of GFP-LC3 puncta formation in a dose dependent manner; Cytotoxicity in PC-12 cells (MTT assay) (PC-12 cells [2]): no significant cytotoxic effect; also recorded: no toxicity observed overtly; Clearance of inclusions formed by EGFP-HDQ74 in PC12 cells [3]: enhanced the clearance of inclusions formed by EGFP-HDQ74; Oligomerization of α-synuclein (GFP fluorescent signal, flow analysis) [4]: inhibit the oligomerization of α-synuclein; Morphological damage in PC12 cells (crystal violet assay) (PC-12 cells [5]): no significant morphological damage; Clearance of overexpressed EGFP-tagged mutant huntingtin with 74 CAG repeats [6]: enhanced the clearance; LC3-II conversion (western blot) [7]: increase of LC3-II conversion; Rate of LC3-II formation in the presence of protease inhibitors (autophagic flux) ([7]; with 10 µg/mL E64D and pepstain A): increased the rate of LC3-II formation
